According to PMC12514245, “Impaired migration and lung invasion of human melanoma by a novel small molecule targeting the transmembrane domain of death receptor p75^NTR” (EMBO Molecular Medicine, 2025):
Where “and” joins values, the source holds several entries; their conditions need not be identical. Equal entries are not always repeated.

Columns and labels:
[1] = tested on: A875-NT melanoma xenograft; experiment: Melanoma lung invasion assay, A875-NT, treatment from one day before cell injection; format: in vivo, SCID mice; details: for Photons/second/ mouse/week, Average: group average; for Photons/second/ mouse/week: single mouse
Description: (§1) Next, to assess the potential inhibitory effects of Np75-4A22 on melanoma cell migration and tissue invasion in vivo, we utilized the highly metastatic human A875 xenograft model. […] Initially, to mimic metastatic dissemination from the primary tumor site, A875-NT or A875-shp75 cells expressing GFP-Luc (for live-monitoring of tumor growth) were injected intravenously in female SCID mice 24 h following a single oral administration of Np75-A422 (200 mg/kg) or drug vehicle alone. Mice received 3 cycles of Np75-A422 (200 mg/kg/day) following a 5 day on and 2 days off drug schedule for a total of 3 weeks (Fig. 8A). Metastatic spread to the lungs was monitored weekly by luciferase activity using the Xenogen IVIS-200 Optical in vivo luciferase imaging system and mice were sacrificed after the third week. […] In addition, assessment of the metastatic spread was also quantified by histological assessment of non-consecutive lung sections stained for human nucleolin to detect the tumor cells. […] In addition, and as expected, high expression of p75^NTR was detected in lung tumors established by A875-NT cells but was negligible in tumors derived from A875-shp75 cells (Fig. EV10).
(§2) Eight-week-old female SCID mice (Charles River Laboratories, Shrewsbury, MA, USA) were housed in groups of three to five and maintained on a 12-h light/dark schedule with a temperature of 22 °C ± 1 °C and a relative humidity of 50% ± 5%. Food and water were available ad libitum. This research study was reviewed and approved by the University of Calgary Animal Care Committee (AC22-0054) and McGill University (AUP-JGH-8269) and adheres to established ethical principles and guidelines. A875-GFPLuc (A875-NT) or A875-GFPLuc shp75 (A875-shp75) cells harvested using Puck’s EDTA were resuspended in PBS and injected intravenously into SCID mice (5 × 10^5 cells/200 μl per mouse). Np75-4A22 was dissolved in 0.5% sodium carboxymethyl cellulose (NaCMC) in reverse osmosis H2O and administered by oral gavage at 200 mg/kg/day starting one day prior to intravenous (tail vein) injection of tumor cells and continued for 3 1-week cycles (cycle: 5 days on drug, 2 days off drug). Tumor spread to the lung was monitored weekly by luciferase activity using the Xenogen IVIS-200 Optical in vivo luciferase imaging system as described previously (Lun et al, [2016]) and by immunohistochemistry (IHC) at designated time points. IHC was performed after formalin fixation, paraffin embedding and sectioning of the lungs, using a human-specific mouse polyclonal nucleolin antibody (1:500 dilution) and detected using Dako liquid DAB+ Substrate Chromogen System (Dako: k3468, California, USA) followed by a hematoxylin counterstain (Sigma, Oakville, ON, Canada). Sections were mounted and imaged on an Olympus phase contrast microscope (Olympus Life Science, Tokyo, Japan). For immunofluorescence, sections were stained with anti-human nucleolin and anti-human p75NTR antibodies (1:1000 dilution), subsequently detected with 1:200 dilutions of Alexa Fluor™ 488 Goat anti-Mouse IgG (H + L) Highly Cross-Adsorbed Secondary Antibody and Alexa Fluor™ 568 Goat anti-Rabbit IgG (H + L) Cross-Adsorbed Secondary Antibody. Sections were further stained with DAPI to detect all nuclei. Between each treatment, TBS Automation Wash Buffer (Biocare Medical TWB945M) was employed. Images were taken with LSM800 confocal microscope and ZEN system.

[2] = tested on: A875-shp75 melanoma xenograft; experiment: Melanoma lung invasion assay, A875-shp75, treatment from one day before cell injection; format: in vivo, SCID mice
Description: as §1, §2

Cc1cccc(-c2cncc(Nc3ccc(Br)c(Cl)c3Cl)n2)c1C [Np75-4A22]
Photons/second/ mouse/week, Average ([1]; A875-NT, 1wk): 9.39E+04 Photons/second | Photons/second/ mouse/week ([1]; A875-NT, 1wk): 8.62E+04 Photons/second and 1.03E+05 Photons/second and 1.11E+05 Photons/second and 1.02E+05 Photons/second and 1.26E+05 Photons/second and 1.23E+05 Photons/second and 7.03E+04 Photons/second and 6.52E+04 Photons/second and 7.29E+04 Photons/second and 7.98E+04 Photons/second | Photons/second/ mouse/week, Average ([1]; A875-NT, 2wks): 1.01E+05 Photons/second | Photons/second/ mouse/week ([1]; A875-NT, 2wks): 9.63E+04 Photons/second and 1.02E+05 Photons/second and 1.27E+05 Photons/second and 8.86E+04 Photons/second and 1.04E+05 Photons/second and 1.23E+05 Photons/second and 9.01E+04 Photons/second and 9.59E+04 Photons/second and 8.45E+04 Photons/second and 9.64E+04 Photons/second | Photons/second/ mouse/week ([1]; A875-NT, 3wks): 1.77E+05 Photons/second and 1.53E+05 Photons/second and 2.03E+05 Photons/second and 2.34E+05 Photons/second and 2.96E+05 Photons/second and 2.73E+05 Photons/second and 1.26E+05 Photons/second and 2.18E+05 Photons/second and 2.30E+05 Photons/second and 1.32E+05 Photons/second | Metastatic Nodules/Lung Section, Average ([1]; A875-NT, average of 5 non-consecutive slides per individual mouse): 0.6 and 0.2 and 0.4 and 1 and 0 | Cancer Cells/Lung Section, Average per mouse ([1]; A875-NT, average of 5 slides of one mouse): 5.4 and 2 and 18.4 and 8 and 21.4 and 2.2 and 0 | Cancer Cells/Lung Section, group Average ([1]; A875-NT, average of all mice): 6.16 | Metastatic Nodules/Lung Section, group Average ([1]; A875-NT, average over all mice of the group): 0.36 | Metastatic Nodules/Lung Section, Slide 1 ([1]; A875-NT, individual mouse, slide 1 of 5 non-consecutive slides/mouse): 0 and 1 | Metastatic Nodules/Lung Section, Slide 2 ([1]; A875-NT, individual mouse, slide 2 of 5 non-consecutive slides/mouse): 1 and 0 | Metastatic Nodules/Lung Section, Slide 3 ([1]; A875-NT, individual mouse, slide 3 of 5 non-consecutive slides/mouse): 0 and 1 | Metastatic Nodules/Lung Section, Slide 4 ([1]; A875-NT, individual mouse, slide 4 of 5 non-consecutive slides/mouse): 0 and 1 and 2 | Metastatic Nodules/Lung Section, Slide 5 ([1]; A875-NT, individual mouse, slide 5 of 5 non-consecutive slides/mouse): 2 and 1 and 0 | lung tumors (luciferase imaging) ([1]; oral 200 mg/kg/day, 3 cycles 5 days on/2 days off): dramatic reduction of lung tumors | lung tumors by histology (human nucleolin; cancer cells and lesions) ([1]; oral 200 mg/kg/day, 3 weeks): marked reduction | Metastatic Nodules/Lung Section, Average ([2]; A875-shp75, average of 5 non-consecutive slides per individual mouse): 1.2 and 0.8 and 0.4 and 0.2 and 1.8 and 0.6 and 10.6 | Cancer Cells/Lung Section, Average per mouse ([2]; A875-shp75, average of 5 slides of one mouse): 7 and 6 and 2.8 and 3.2 and 3.6 and 25.6 and 1.6 and 13 and 132.2 | Cancer Cells/Lung Section, group Average ([2]; A875-shp75, average of all mice): 21.6667 | Metastatic Nodules/Lung Section, group Average ([2]; A875-shp75, average over all mice of the group): 1.8 | Metastatic Nodules/Lung Section, Slide 1 ([2]; A875-shp75, individual mouse, slide 1 of 5 non-consecutive slides/mouse): 2 and 1 and 0 and 6 | Metastatic Nodules/Lung Section, Slide 2 ([2]; A875-shp75, individual mouse, slide 2 of 5 non-consecutive slides/mouse): 2 and 0 and 1 and 3 and 14 | Metastatic Nodules/Lung Section, Slide 3 ([2]; A875-shp75, individual mouse, slide 3 of 5 non-consecutive slides/mouse): 1 and 0 and 2 and 18 | Metastatic Nodules/Lung Section, Slide 4 ([2]; A875-shp75, individual mouse, slide 4 of 5 non-consecutive slides/mouse): 1 and 0 and 2 and 12 | Metastatic Nodules/Lung Section, Slide 5 ([2]; A875-shp75, individual mouse, slide 5 of 5 non-consecutive slides/mouse): 0 and 1 and 3 | p75NTR-negative lung tumors ([2]; oral 200 mg/kg/day, 3 weeks): not significantly affected
